Assay results: patent publication US20080207614A1, “QUINAZOLINE DERIVATIVES FOR THE TREATMENT AND PREVENTION OF DIABETES AND OBESITY” (SK CHEMICALS CO., LTD., priority 2004, published 2008)

The molecules below were run on C2C12 muscle cells (assay: Analysis of glucose absorption (2-deoxyglucose) in differentiated C2C12 muscle cells). Conditions: test materials 10 μM, times relative to control group.
Type: cell-based
Description: C2C12 muscle cells were cultured in DMEM (Dulbecco's modified Eagle's medium) containing 10% bovine calf serum. When the cell density increased to about 85 to 90%, the culture medium was replaced with 1% bovine calf serum and cell differentiation was induced for 6 days. Completely differentiated cells were cultured for 3 hours with Krebs-Ringer buffer (KRB) containing 5 mM glucose. The test materials were added at a concentration of 10 μM. 30 minutes later, 0.2 μCi 2-deoxyglucose was added. KRB was removed 20 minutes later and the cells were washed for 3 times with cold PBS. The cells were lysed with 0.5N NaOH and counted using a radioactive counter.
Work on `c1ccc(Oc2ccccc2Nc2nc(-c3ccccc3)nc3ccccc23)cc1` [Compound 80, (2-Phenoxy-phenyl)-(2-phenylquinazolino-4-yl)-amine] yielded a Glucose absorption of 1.0. With `CCSc1nc(NCCO)c2ccccc2n1` [Compound 47, 2-(2-Ethylsulfanylquinazolino-4-ylamino)-ethanol] the Glucose absorption was 0.9. `CCCCCCCCCCCCCCCCNc1nc(SCC)nc2ccccc12` [Compound 43, (2-Ethylsulfanylquinazolino-4-yl)-hexadecylamine] was tested, and the Glucose absorption was 1.1. For `c1ccc(-c2nc(NCC3CCCC3)c3ccccc3n2)cc1` [Compound 159, Cyclopentylmethyl-(2-phenylquinazolino-4-yl)-amine], the Glucose absorption was 2.6. In the case of `Fc1ccccc1CNc1nc(-c2ccccc2)nc2ccccc12` [Compound 94, (2-Fluorobenzyl)-(2-phenylquinazolino-4-yl)-amine], the Glucose absorption is reported as 1.3. Molecule `c1ccc(CNc2nc(-c3cccnc3)nc3ccccc23)cc1` [Compound 235, Benzyl-(2-pyridino-3-ylquinazolino-4-yl)-amine] has a Glucose absorption of 1.2. In the case of `CCSc1nc(NCCCc2ccccc2)c2ccccc2n1` [Compound 32, (2-Ethylsulfanylquinazoline-4-yl)-(3-phenylpropyl)-amine], the Glucose absorption is reported as 1.1. With `CCCCNc1nc(-c2ccccc2)nc2ccccc12` [Compound 56, Butyl-(2-phenylquinazolino-4-yl)-amine] the Glucose absorption was 1.1. With `c1cncc(-c2nc(NCc3ccc4c(c3)OCO4)c3ccccc3n2)c1` [Compound 242, Benzo[1,3]dioxol-5-ylmethyl-(2-pyridino-3-ylquinazolino-4-yl)-amine] the Glucose absorption was 0.9. `Clc1ccc(-c2nc(NCCCCc3ccccc3)c3ccccc3n2)cc1` [Compound 264, [2-(4-Chlorophenyl)-quinazolino-4-yl]-(4-phenylbutyl)-amine] was tested, and the Glucose absorption was 1.1. Molecule `CCC(C)Nc1nc(-c2ccccc2)nc2ccccc12` (stereo not shown) [Compound 96, sec-Butyl-(2-phenylquinazolino-4-yl)-amine] has a Glucose absorption of 1.3. In the case of `CC(C)(C)c1nc(NCc2ccc3c(c2)OCO3)c2ccccc2n1` [Compound 194, Benzo[1,3]dioxol-5-ylmethyl-(2-tert-butylquinazolino-4-yl)-amine], the Glucose absorption is reported as 1.4. `c1ccc(Oc2cccc(Nc3nc(-c4ccccc4)nc4ccccc34)c2)cc1` [Compound 81, (3-Phenoxy-phenyl)-(2-phenylquinazolino-4-yl)-amine] showed a Glucose absorption of 0.9. Molecule `Cc1ccc(Nc2nc(-c3ccccc3)nc3ccccc23)c(C)c1` [Compound 73, (2,4-Dimethyl-phenyl)-(2-phenylquinazolino-4-yl)-amine] has a Glucose absorption of 1.0. Molecule `CCSc1nc(NC2CCN(Cc3ccccc3)CC2)c2ccccc2n1` [Compound 41, (1-Benzyl-piperidino-4-yl)-(2-ethylsulfanylquinazolino-4-yl)-amine] has a Glucose absorption of 1.1. `Fc1cccc(CNc2nc(-c3ccccn3)nc3ccccc23)c1` [Compound 231, (3-Fluorobenzyl)-(2-pyridino-2-ylquinazolino-4-yl)-amine] was tested, and the Glucose absorption was 1.2. With `CCSc1nc(NCCCN2CCCCC2C)c2ccccc2n1` (stereo not shown) [Compound 48, (2-Ethylsulfanylquinazolino-4-yl)-[3-(2-methyl-piperidino-1-yl)-propyl]-amine] the Glucose absorption was 1.0. Work on `c1ccc(CCNc2nc(-c3cccnc3)nc3ccccc23)cc1` [Compound 239, Phenethyl-(2-pyridino-3-ylquinazolino-4-yl)-amine] yielded a Glucose absorption of 0.5. Molecule `CN1CCN(CCNc2nc(-c3ccccc3)nc3ccccc23)CC1` [Compound 158, [2-(4-Methylpiperazino-1-yl)-ethyl]-(2-phenylquinazolino-4-yl)-amine] has a Glucose absorption of 2.0. `c1ccc2c(NCc3ccc4c(c3)OCO4)nc(-c3ccncc3)nc2c1` [Compound 254, Benzo[1,3]dioxol-5-ylmethyl-(2-pyridino-4-ylquinazolino-4-yl)-amine] gave a Glucose absorption of 1.4. `FC(F)(F)c1cccc(CNc2nc(-c3ccncc3)nc3ccccc23)c1` [Compound 250, (2-Pyridino-4-ylquinazolino-4-yl)-(3-trifluoromethylbenzyl)-amine] gave a Glucose absorption of 1.3. In the case of `c1ccc(CCCCNc2nc(Cc3ccccc3)nc3ccccc23)cc1` [Compound 216, (2-Benzylquinazolino-4-yl)-(4-phenylbutyl)-amine], the Glucose absorption is reported as 2.6. `Cc1cc(C)c(Nc2nc(-c3ccccc3)nc3ccccc23)c(C)c1` [Compound 78, (2-Phenylquinazolino-4-yl)-(2,4,6-trimethyl-phenyl)-amine] gave a Glucose absorption of 1.4. Molecule `CCSc1nc(NCCCN2CCOCC2)c2ccccc2n1` [Compound 36, (2-Ethylsulfanylquinazolino-4-yl)-(3-morpholino-4-ylpropyl)-amine] has a Glucose absorption of 1.4. `COc1cccc(CNc2nc(Cc3ccccc3)nc3ccccc23)c1` [Compound 212, (2-Benzylquinazolino-4-yl)-(3-methoxybenzyl)-amine] gave a Glucose absorption of 2.0. In the case of `FC(F)(F)c1cccc(CNc2nc(-c3ccc(Cl)cc3)nc3ccccc23)c1` [Compound 262, [2-(4-Chlorophenyl)-quinazolino-4-yl]-(3-trifluoromethylbenzyl)-amine], the Glucose absorption is reported as 1.1. In the case of `COc1cccc(CNc2nc(C(C)(C)C)nc3ccccc23)c1` [Compound 188, (2-tert-Butylquinazolino-4-yl)-(3-methoxybenzyl)-amine], the Glucose absorption is reported as 1.0. Molecule `COc1cccc(CNc2nc(-c3ccc(Cl)cc3)nc3ccccc23)c1` [Compound 260, [2-(4-chlorophenyl)-quinazolino-4-yl]-(3-methoxybenzyl)-amine] has a Glucose absorption of 1.4. `Cc1ccc(CNc2nc(-c3ccccc3)nc3ccccc23)cc1` [Compound 54, (4-Methylbenzyl)-(2-phenylquinazolino-4-yl)-amine] gave a Glucose absorption of 1.2. `FC(F)(F)c1cccc(CNc2nc(C3CCCCC3)nc3ccccc23)c1` [Compound 202, (2-Cyclohexylquinazolino-4-yl)-(3-trifluoromethylbenzyl)-amine] was tested, and the Glucose absorption was 1.4. For `CC(C)c1nc(NCCO)c2ccccc2n1` [Compound 186, 2-(2-Isopropylquinazolino-4-ylamino)-ethanol], the Glucose absorption was 1.0. In the case of `COc1ccc(CCNc2nc(-c3ccccc3)nc3ccccc23)cc1` [Compound 124, [2-(4-Methoxyphenyl)-ethyl]-(2-phenylquinazolino-4-yl)-amine], the Glucose absorption is reported as 1.4. `CC(C)Nc1nc(-c2ccccc2)nc2ccccc12` [Compound 60, Isopropyl-(2-phenylquinazolino-4-yl)-amine] showed a Glucose absorption of 1.0. Work on `CCSc1nc(NC2CCCC2)c2ccccc2n1` [Compound 28, Cyclopentyl-(2-ethylsulfanylquinazolino-4-yl)-amine] yielded a Glucose absorption of 1.1. For `c1ccc(CCNc2nc(-c3ccncc3)nc3ccccc23)cc1` [Compound 251, Phenethyl-(2-pyridino-4-ylquinazolino-4-yl)-amine], the Glucose absorption was 0.6. Work on `CCCCCCCCCCCCCCCCNc1nc(-c2ccccc2)nc2ccccc12` [Compound 99, Hexadecyl-(2-phenylquinazolino-4-yl)-amine] yielded a Glucose absorption of 1.4. With `Clc1ccc(-c2nc(NCc3cccc4ccccc34)c3ccccc3n2)cc1` [Compound 265, [2-(4-Chlorophenyl)-quinazolino-4-yl]-naphthaleno-1-ylmethylamine] the Glucose absorption was 1.1.
